Assay results reported in patent US12648927B2, “Compositions and methods of enhancing immunotherapies” (Cha Therapeutics, Inc., priority 2018, dated 2026).

Columns and labels:
HLA-DRB5 (MHC II) = assay: IFN stimulated gene expression by qRT-PCR (HLA-DRB5), TNBC human xenograft tumors; type: in vivo; settings: single components vs combination
Method: It was tested in 6 treated and 5 untreated tumors. *P<0.05, **P<0.01, ***P<0.005, ****P<0.001. Data represented as mean±SEM.

PDL-1 = PDL-1 gene expression by qRT-PCR, human MDA-MB-231 xenograft tumors; type: in vivo; settings: human tumors in immune compromised mice, 4-5 mice each group
From the text: Data represented as mean±SEM.

Row | SMILES | HLA-DRB5 (MHC II) gene expression (HLA-DRB5 (MHC II)) | relative gene expression of PDL-1, increase (PDL-1)
1 | Nc1ncn([C@H]2C[C@H](O)[C@@H](CO)O2)c(=O)n1 [DAC, decitabine] | no significant effect | 2 fold
2 | O=C(O[C@@H]1Cc2c(O)cc(O)cc2O[C@@H]1c1cc(O)c(O)c(O)c1)c1cc(O)c(O)c(O)c1 [EGCG, epigallocatechin gallate] | no significant effect | 
